The values below come from ChEMBL document CHEMBL1201862, “PubChem BioAssay data set” (2004).

Among the test systems are HT-29; M14; A498; NCI/ADR-RES; SR; HOP-62; T47D; SW-620; SF-295; OVCAR-5; LOX IMVI; SK-OV-3; CCRF-CEM; U-251; HCT-116; SNB-75; IGROV-1; OVCAR-3; SN12C; RXF 393.
Holding throughout (test): inhibition of tumour cell growth, NCI panel, 48 h

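Five compound concentrations were applied to cells in 96-well plates for 48 hours; endpoints were derived by simple linear interpolation of the resulting dose-response curve. At the GI50, growth is halved.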 Activity calls are given as the source filed them. No stated cut-off is given here; in the data, active = GI50 up to about 1.1 µM and inactive = higher. Bounds are passed on as bounds.

Consider `COc1cc(/C=C/C(=O)CC(=O)/C=C/c2cc(OC)c(O)c(OC)c2)cc(OC)c1O`, for which the GI50 in the assay on HT-29 is 7.76 µM (inactive); in the assay with M14, 8.61 µM (inactive); in the assay with A498, 4.93 µM (inactive); in the assay with NCI/ADR-RES, > 25 µM (inactive); in the assay with SR, 5.53 µM (inactive); with HOP-62 it was 11.7 µM (inactive). Also, the GI50 is 6.5 µM (inactive) in the assay on T47D; > 25 µM (inactive) with SW-620; 9.91 µM (inactive) in the assay with SF-295; 10.3 µM (inactive) in the assay with OVCAR-5; 7.82 µM (inactive) in the assay on LOX IMVI; 7.94 µM (inactive) with SK-OV-3. For the same compound, the GI50 was > 25 µM (inactive) in the assay on CCRF-CEM; 8.11 µM (inactive) in the assay with U-251; 5.12 µM (inactive) in the assay on HCT-116; 3.01 µM (inactive) with SNB-75; 5.35 µM (inactive) in the assay on IGROV-1; 6.85 µM (inactive) with OVCAR-3. For the same compound, the GI50 in the assay on SN12C was 6.68 µM (inactive); in the assay on RXF 393 it was 3.33 µM (inactive).

As for `O=C(CCCCCCCCC(=O)N1C(=O)CC(=O)N(c2cccc(Cl)c2)C1=S)N1C(=O)CC(=O)N(c2cccc(Cl)c2)C1=S`, the GI50 with HT-29 was 36.9 µM (inactive); in the assay on M14 it was 38.9 µM (inactive); in the assay on A498 it was 39.9 µM (inactive); with NCI/ADR-RES, 27.2 µM (inactive); in the assay on SR it was 26.1 µM (inactive); with HOP-62, 43.2 µM (inactive). In addition, the GI50 in the assay on T47D is 37 µM (inactive); in the assay on SF-295 it was 28.1 µM (inactive); with OVCAR-5 it was 56.6 µM (inactive); with LOX IMVI it was 47.1 µM (inactive); in the assay with SK-OV-3, 42.6 µM (inactive); with CCRF-CEM it was 32.7 µM (inactive). For the same compound, the GI50 is 35.6 µM (inactive) in the assay on U-251; 34.2 µM (inactive) in the assay with HCT-116; 33.3 µM (inactive) with SNB-75; 25.2 µM (inactive) in the assay on OVCAR-3; 40.2 µM (inactive) in the assay with SN12C; 44.9 µM (inactive) in the assay on RXF 393.

On to `CC(C)CCCCCCCCCCCCC(=O)NCC(=O)NC1C(O)C(O)C(Nc2[nH]cnc3ncnc2-3)OC1C(O)CO` (stereo unspecified), for which the GI50 with HT-29 is 0.000555 µM (active); in the assay with M14, 0.191 µM (active); in the assay on A498, 0.000248 µM (active); with NCI/ADR-RES, 0.00403 µM (active); with SR, 0.426 µM (active); with HOP-62, 0.000453 µM (active). In addition, the GI50 in the assay with T47D was 0.32 µM (active); in the assay on SF-295, 0.000604 µM (active); in the assay on OVCAR-5 it was 0.00199 µM (active); with LOX IMVI, 0.000508 µM (active); with SK-OV-3, 0.000671 µM (active); in the assay on CCRF-CEM, 0.0568 µM (active). For the same compound, the GI50 with U-251 was 0.000461 µM (active); in the assay with HCT-116 it was 0.000479 µM (active); with SNB-75, 0.000441 µM (active); in the assay on IGROV-1 it was 0.000508 µM (active); in the assay on OVCAR-3 it was 0.000605 µM (active); in the assay on SN12C, 0.000753 µM (active). For the same compound, in the assay on RXF 393, the GI50 is 0.000877 µM (active).

Regarding `CN(Cc1cnc2nc(N)nc(N)c2n1)c1ccc(C(=O)NC23CC4CC(CC(C4)C2)C3)cc1`, the GI50 in the assay with M14 is 4.14 µM (inactive); in the assay with A498, 53.6 µM (inactive); in the assay on NCI/ADR-RES, 42.8 µM (inactive); in the assay on SR, 12.7 µM (inactive); in the assay with HOP-62 it was 12.6 µM (inactive); with T47D, 15.9 µM (inactive). Besides, the GI50 in the assay with SW-620 is 7.33 µM (inactive); with SF-295 it was 4.69 µM (inactive); with OVCAR-5, 12.2 µM (inactive); in the assay on LOX IMVI, 5.48 µM (inactive); in the assay on SK-OV-3, 15.2 µM (inactive); in the assay with CCRF-CEM it was 3.95 µM (inactive). The GI50 in the assay on U-251 was 12 µM (inactive); in the assay with HCT-116, 4.01 µM (inactive); with SNB-75, 21.5 µM (inactive); in the assay on IGROV-1 it was 5.9 µM (inactive); in the assay with OVCAR-3 it was 16.9 µM (inactive); in the assay on SN12C, 20.4 µM (inactive). Moreover, in the assay on RXF 393, the GI50 is 17.1 µM (inactive).

As for `Cc1cc2nn(C3CCCO3)nc2cc1C` (stereo unspecified), the GI50 with HT-29, in the assay with M14, in the assay with A498, with NCI/ADR-RES, in the assay with SR and in the assay with HOP-62 was > 100 µM (inactive) throughout. For the same compound, the GI50 with T47D, in the assay on SF-295, with OVCAR-5, in the assay with SK-OV-3, with CCRF-CEM and with U-251 was > 100 µM (inactive) throughout. Further, the GI50 is > 100 µM (inactive) with HCT-116; 69.3 µM (inactive) in the assay with SNB-75; > 100 µM (inactive) in the assay on IGROV-1; > 100 µM (inactive) in the assay on OVCAR-3; > 100 µM (inactive) in the assay with SN12C; > 100 µM (inactive) in the assay with RXF 393.

Turning to `COc1ccc(-n2nnnc2C2(Nc3ccccc3)CCN(Cc3ccccc3)CC2)cc1`, the GI50 in the assay on HT-29 is 6.82 µM (inactive); in the assay on M14 it was 14.2 µM (inactive); in the assay on A498, 12.8 µM (inactive); in the assay with NCI/ADR-RES, 7.35 µM (inactive); in the assay on SR, 5.3 µM (inactive); with HOP-62 it was 16.5 µM (inactive). The GI50 with T47D is 14.7 µM (inactive); in the assay with SW-620, 7.38 µM (inactive); in the assay with SF-295, 13.6 µM (inactive); with OVCAR-5, 15.7 µM (inactive); in the assay on LOX IMVI, 9.29 µM (inactive); in the assay with SK-OV-3, 13.6 µM (inactive). The GI50 with CCRF-CEM is 18.7 µM (inactive); in the assay with U-251, 16.4 µM (inactive); in the assay on HCT-116 it was 7.8 µM (inactive); in the assay with SNB-75, 12.2 µM (inactive); in the assay on IGROV-1, 11.9 µM (inactive); in the assay with SN12C, 7.29 µM (inactive). The GI50 in the assay on RXF 393 is 17.5 µM (inactive).

As to `CC(NC1=NCCO1)c1cccs1` (stereo unspecified), the GI50 is 19.1 µM (inactive) in the assay on HT-29; 18.2 µM (inactive) with M14; 74 µM (inactive) in the assay on A498; > 100 µM (inactive) in the assay with NCI/ADR-RES; 26.4 µM (inactive) in the assay on SR; 22.2 µM (inactive) in the assay with HOP-62. In addition, the GI50 was 36.4 µM (inactive) with T47D; 36.5 µM (inactive) in the assay on SW-620; 16.5 µM (inactive) with SF-295; 69.5 µM (inactive) in the assay with OVCAR-5; 57.9 µM (inactive) with SK-OV-3; 20 µM (inactive) with CCRF-CEM. Also, the GI50 in the assay with U-251 is 18.1 µM (inactive); in the assay with HCT-116, 20 µM (inactive); with SNB-75 it was 37.7 µM (inactive); with IGROV-1, 23.1 µM (inactive); in the assay on SN12C it was 60.7 µM (inactive); with RXF 393, > 10 µM (inactive).

For the compound `CC1=C(C#N)C2C(=C(C)N1)C(N)=Nc1ccccc12` (stereo unspecified), the GI50 was 38.3 µM (inactive) with HT-29; 36.4 µM (inactive) in the assay on M14; 22.3 µM (inactive) with A498; > 100 µM (inactive) in the assay on NCI/ADR-RES; 41.1 µM (inactive) with SR; 67.3 µM (inactive) with HOP-62. Further, the GI50 in the assay on T47D is 31.4 µM (inactive); in the assay on SW-620 it was 48.1 µM (inactive); with SF-295 it was 30.6 µM (inactive); in the assay on OVCAR-5, 70.5 µM (inactive); with LOX IMVI, 36 µM (inactive); in the assay on SK-OV-3 it was 76.4 µM (inactive). The GI50 with CCRF-CEM was 32.5 µM (inactive); in the assay on HCT-116, 32.6 µM (inactive); in the assay on SNB-75 it was 8.17 µM (inactive); in the assay on IGROV-1, 29.9 µM (inactive); in the assay on OVCAR-3 it was 28.4 µM (inactive); in the assay with SN12C, 38.5 µM (inactive). Further, the GI50 in the assay with RXF 393 was 38 µM (inactive).

Consider `COC(=O)C1=C(C)NC(C)=C(C(=O)OC)C1c1nc2sccn2c1[N+](=O)[O-]`, for which the GI50 with M14, in the assay with A498, with NCI/ADR-RES, in the assay on SR, in the assay on HOP-62 and with T47D was > 100 µM (inactive) in each case. Also, the GI50 in the assay on SW-620, in the assay with SF-295, in the assay with OVCAR-5, with LOX IMVI, in the assay with SK-OV-3 and in the assay with CCRF-CEM was > 100 µM (inactive) each time. The GI50 with U-251, with HCT-116, in the assay on SNB-75, in the assay with OVCAR-3, in the assay on SN12C and in the assay on RXF 393 was > 100 µM (inactive) throughout.

As for `Cc1c(C(=O)O)n2c(S)nnc2c2ccccc12`, the GI50 in the assay on HT-29, in the assay on M14, in the assay with A498, in the assay on NCI/ADR-RES, with SR and in the assay with HOP-62 was > 100 µM (inactive) each time. The GI50 in the assay with T47D, with SW-620, in the assay on SF-295, with OVCAR-5, with LOX IMVI and in the assay with SK-OV-3 was > 100 µM (inactive) throughout. Besides, the GI50 with CCRF-CEM, with U-251, in the assay with HCT-116, in the assay with IGROV-1, in the assay on OVCAR-3 and in the assay with SN12C was > 100 µM (inactive) throughout. Besides, in the assay with RXF 393, the GI50 is > 100 µM (inactive).

For `CNC(=O)C1OC(n2cnc3c(NCc4cccc(I)c4)nc(Cl)nc32)C(O)C1O` (stereo unspecified), the GI50 in the assay with M14 was 10.3 µM (inactive); in the assay with A498, 13.8 µM (inactive); with NCI/ADR-RES, 11.7 µM (inactive); in the assay with SR, 14 µM (inactive); with HOP-62 it was 12.7 µM (inactive); with T47D, 15.6 µM (inactive). Further, the GI50 with SW-620 is 14.9 µM (inactive); in the assay on SF-295 it was 18.7 µM (inactive); with OVCAR-5 it was 14 µM (inactive); in the assay on LOX IMVI, 6.18 µM (inactive); in the assay on SK-OV-3, 17.2 µM (inactive); in the assay with CCRF-CEM, 16.7 µM (inactive). In addition, the GI50 was 14.8 µM (inactive) in the assay with U-251; 15.6 µM (inactive) in the assay with HCT-116; 0.839 µM (active) in the assay on SNB-75; 14.1 µM (inactive) in the assay with IGROV-1; 13 µM (inactive) in the assay on OVCAR-3; 16.6 µM (inactive) in the assay with SN12C. Besides, the GI50 in the assay on RXF 393 was 10.4 µM (inactive).
